Reference: patent US20050282743A1, “Molecular interactions in cells” (Arbor Vita Corporation, priority 2001, published 2005)
Values joined by “and” are separate entries in the source; they are usually repeats but may differ in a detail not shown here. Equal entries are not always repeated. Where two headings read alike, the source gives them in different places. Peptide text beside a SMILES is read from it. * marks the point of attachment. Biotin = O=C1N[C@H]2[C@H](CS[C@H]2CCCCC(=O)*)N1

Tests used:
Type in all cases: binding
DLG1(1-2) = biological target: T1, DLG1(1-2) (Homo sapiens, UniProt Q12959); assay: G assay peptide titration, dissociation constants (Example 3, TABLE 4); settings: biotinylated C-terminal 20-mer, 450 nm, 30 min
T1 construct: made in house; host or cells: E. coli (DH5alpha, BL21 or JM109)
Protocol: (§1) Binding between these molecules was assessed using a modified ELISA. Briefly, a GST-TIP-1 fusion was produced that contained the entire PDZ domain of human TIP-1 (Insert as in EXAMPLE 2). In addition, biotinylated peptides corresponding to the C-terminal 20 amino acids of Tax and CD95 were synthesized and purified by HPLC. Binding between these entities was detected through a colorimetric assay using avidin-HRP to bind the biotin and a peroxidase substrate (G-assay, as described supra). By titrating the amount of peptide and protein added to these reactions, dissociation constants (Kd) were determined as an indication of relative affinity of the peptide and fusion protein association.
(§2) (at last wash leave PBS in wells until immediately adding next step) • 6) Add proteins at 50 ul per well on ice (1 to 2 hrs at 4° C.) • 7) Prepare Peptides in 2% BSA (2 ml/row or /columns) • 8) 3× wash with cold PBS • 9) Add peptides at 50 ul per well on ice (time on/time off)
(§3) Using the protocol for the ‘G’ assay described above, dissociation constants were determined by titrating the amount of peptide against a set concentration of PDZ-containing protein. Kd values were determined by identifying the peptide concentration that gave half-maximal binding to the PDZ protein. Different concentrations of PDZ-containing protein were plated in order to achieve maximal peptide binding values that were less than the absorbance maximum of the ELISA plate reader.
(§4) Proteins on the left are GST fusions to the PDZ domain(s) of protein indicated. Numbers in parenthesis indicate the number of PDZ domains present in the fusion construct, from the amino-terminus of the first number listed to the carboxyl terminus of the second. PDZ Ligands are listed across the top of the table, representing biotinylated peptides corresponding to the carboxy-terminal 20 amino acids of each protein. The first three columns following the PDZ indicate the concentration of fusion protein plated for the G assay, followed by the wavelength and time of reading from addition of TMB substrate. 450 nm indicates a reaction halted by addition of sulfuric acid and absorbance read at 450 nm. Values beneath each ligand indicate first the maximum absorbance followed by the observed Kd in uM. Numbers in the squares are the average of duplicate or quadruplicate reactions. Blank squares indicate that the Kd for the interaction was not tested under those conditions on the same sample plate. No binding to GST alone is observed.

TIP-1 (GST-TIP-1 fusion) = biological target: T2, TIP-1 (GST-TIP-1 fusion) (Homo sapiens, UniProt O14907, I73S); assay: as above; settings: for OD (maximum absorbance) / Kd: biotinylated C-terminal 20-mer, 450 nm, 30 min
T2 construct: made in house; host or cells: E. coli DH5alpha
T2 sequence (O14907 3-123 I73S): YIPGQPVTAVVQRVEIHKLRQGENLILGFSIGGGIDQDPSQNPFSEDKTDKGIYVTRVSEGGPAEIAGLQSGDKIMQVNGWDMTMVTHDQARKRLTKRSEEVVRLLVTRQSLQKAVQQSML
Protocol: as §1, §2, §3, §4

[1] = biological target: T3, PDZ-domain polypeptide (GST/PDZ fusion protein) (Homo sapiens, UniProt Q9NRD5); assay: Apparent affinity (Kd) by titration of PL peptide in the G assay; settings: PDZ PICK1, PDZ Domain 1; read-out: Peptide Optimal Conc (Kd by titration of the PL peptide)
T3 construct: made in house; host or cells: E. coli (DH5alpha, BL21 or JM109)
Procedure, shortened: (§5)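 A fixed concentration of GST/PDZ fusion protein, 5 ug/ml by default, was mixed in solution with increasing labeled PL peptide (e.g. 0.1 uM-1 mM). Reaction times ranged from 10 minutes to 2 days at 4-37° C. Complexes were separated from free peptide and detected via the label as in the G assay, apparent affinity coming from the saturating concentration.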

[2] = biological target: T4, PDZ-domain polypeptide (GST/PDZ fusion protein) (Homo sapiens, UniProt Q12959); assay: as above; settings: PDZ DLG1, PDZ Domain 1, 2; titration of the PL peptide; read-out: Peptide Optimal Conc (Kd, dissociation constant)
T4 construct: made in house; host or cells: E. coli (DH5alpha, BL21 or JM109)
Procedure, shortened: as §5

T1 sequence (Q12959 213-413 limits assumed): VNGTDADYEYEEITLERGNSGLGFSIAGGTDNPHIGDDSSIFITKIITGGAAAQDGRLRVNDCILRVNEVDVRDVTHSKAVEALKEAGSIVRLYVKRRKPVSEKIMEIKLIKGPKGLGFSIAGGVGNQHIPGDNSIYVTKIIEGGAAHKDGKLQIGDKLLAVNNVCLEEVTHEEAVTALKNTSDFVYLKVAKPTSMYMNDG
T3 sequence (Q9NRD5 whole entry, the tested form may be a part): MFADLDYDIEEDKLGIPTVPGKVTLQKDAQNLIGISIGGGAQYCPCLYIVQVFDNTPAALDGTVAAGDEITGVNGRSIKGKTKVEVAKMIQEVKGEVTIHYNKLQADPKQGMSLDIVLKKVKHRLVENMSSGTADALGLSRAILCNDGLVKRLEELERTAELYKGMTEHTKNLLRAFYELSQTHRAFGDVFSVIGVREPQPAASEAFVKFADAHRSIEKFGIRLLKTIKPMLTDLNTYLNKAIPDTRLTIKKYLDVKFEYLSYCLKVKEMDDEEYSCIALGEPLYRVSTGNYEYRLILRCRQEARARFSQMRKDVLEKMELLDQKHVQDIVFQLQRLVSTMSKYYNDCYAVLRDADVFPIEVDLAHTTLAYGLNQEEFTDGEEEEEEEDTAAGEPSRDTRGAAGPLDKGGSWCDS
T4 sequence (Q12959 whole entry, the tested form may be a part): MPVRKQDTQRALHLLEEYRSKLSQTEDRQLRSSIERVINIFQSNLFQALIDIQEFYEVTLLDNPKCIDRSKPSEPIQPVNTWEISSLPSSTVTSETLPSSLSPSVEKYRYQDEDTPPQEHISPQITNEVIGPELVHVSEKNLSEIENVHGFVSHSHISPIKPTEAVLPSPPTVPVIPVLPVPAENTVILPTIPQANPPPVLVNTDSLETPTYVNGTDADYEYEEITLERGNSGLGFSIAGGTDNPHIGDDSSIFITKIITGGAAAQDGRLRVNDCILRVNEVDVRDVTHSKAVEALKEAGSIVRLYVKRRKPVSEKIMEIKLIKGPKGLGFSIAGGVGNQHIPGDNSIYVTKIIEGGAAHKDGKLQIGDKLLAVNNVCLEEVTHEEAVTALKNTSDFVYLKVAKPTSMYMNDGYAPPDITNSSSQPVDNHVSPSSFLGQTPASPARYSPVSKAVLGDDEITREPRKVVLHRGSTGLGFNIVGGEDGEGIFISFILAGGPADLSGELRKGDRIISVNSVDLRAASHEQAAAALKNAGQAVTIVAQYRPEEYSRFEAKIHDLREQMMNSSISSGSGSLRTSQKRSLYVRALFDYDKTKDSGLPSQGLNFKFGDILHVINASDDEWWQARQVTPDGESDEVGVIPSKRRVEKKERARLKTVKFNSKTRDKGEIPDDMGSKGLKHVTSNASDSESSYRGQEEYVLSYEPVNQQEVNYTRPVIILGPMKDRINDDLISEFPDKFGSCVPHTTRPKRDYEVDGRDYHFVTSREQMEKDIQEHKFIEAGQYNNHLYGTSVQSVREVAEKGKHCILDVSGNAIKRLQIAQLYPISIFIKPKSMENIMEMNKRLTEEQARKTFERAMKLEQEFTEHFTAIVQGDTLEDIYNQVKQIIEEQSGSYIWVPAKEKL

Structure (SMILES): CC[C@H](C)[C@H](NC(=O)[C@H](CCC(=O)O)NC(=O)[C@H](CC(N)=O)NC(=O)[C@H](CCCNC(=N)N)NC(=O)[C@H](Cc1ccccc1)NC(=O)[C@H](CC(N)=O)NC(=O)[C@H](CO)NC(=O)[C@H](CC(N)=O)NC(=O)[C@H](CCC(=O)O)NC(=O)[C@H](CO)NC(=O)[C@H](CC(=O)O)NC(=O)[C@H](CO)NC(=O)[C@@H](NC(=O)[C@@H](NC(=O)[C@H](CC(=O)O)NC(=O)[C@H](CCCCN)NC(=O)CCCC[C@@H]1SC[C@@H]2NC(=O)N[C@@H]21)[C@@H](C)CC)[C@@H](C)O)C(=O)N[C@@H](CCC(N)=O)C(=O)N[C@@H](CO)C(=O)N[C@@H](CC(C)C)C(=O)N[C@H](C(=O)O)C(C)C [CD95] (Biotin-KDITSDSENSNFRNEIQSLV-OH; C-terminus assumed)
- OD (maximum absorbance) (DLG1(1-2); DLG1(1-2) plated at 0.3 ug/ml): 2.6 and 2.1
- Kd (DLG1(1-2); DLG1(1-2) plated at 0.3 ug/ml, read-out: Kd): 15 µM and 20 µM
- OD (maximum absorbance) (TIP-1 (GST-TIP-1 fusion); TIP-1 plated at 0.3 ug/ml): 2.6 and 3.5
- Kd (TIP-1 (GST-TIP-1 fusion); TIP-1 plated at 0.3 ug/ml, read-out: Kd): 20 µM and 25 µM

Structure (SMILES): CC(C)C[C@H](NC(=O)[C@H](Cc1c[nH]c2ccccc12)NC(=O)[C@H](Cc1c[nH]cn1)NC(=O)[C@H](CCCNC(=N)N)NC(=O)[C@H](CC(C)C)NC(=O)[C@@H](NC(=O)[C@H](Cc1ccccc1)NC(=O)[C@H](CCC(N)=O)NC(=O)[C@H](CCCNC(=N)N)NC(=O)[C@@H](NC(=O)[C@H](CCC(=O)O)NC(=O)CNC(=O)[C@H](CCCNC(=N)N)NC(=O)[C@H](CC(=O)O)NC(=O)[C@@H](NC(=O)[C@H](CC(C)C)NC(=O)[C@H](CCC(=O)O)NC(=O)[C@H](CCCNC(=N)N)NC(=O)CCCC[C@@H]1SC[C@@H]2NC(=O)N[C@@H]21)C(C)C)C(C)C)[C@@H](C)O)C(=O)N[C@@H](CCCCN)C(=O)N[C@H](C(=O)O)C(C)C [Dopamine transporter (Na+-dependent)] (Biotin-RELVDRGEVRQFTLRHWLKV-OH; C-terminus assumed)
- Kd [1]: 0.9 µM

Structure (SMILES): CC[C@H](C)[C@H](NC(=O)[C@H](CCC(=O)O)NC(=O)[C@H](CO)NC(=O)[C@H](CCC(=O)O)NC(=O)[C@H](CCCNC(=N)N)NC(=O)[C@H](CCCNC(=N)N)NC(=O)[C@H](CC(C)C)NC(=O)[C@@H]1CCCN1C(=O)[C@H](CCCNC(=N)N)NC(=O)[C@@H]1CCCN1C(=O)[C@H](CCC(=O)O)NC(=O)[C@H](CC(C)C)NC(=O)[C@@H]1CCCN1C(=O)[C@@H](NC(=O)[C@H](CO)NC(=O)[C@H](C)NC(=O)[C@H](CCC(N)=O)NC(=O)[C@H](CC(N)=O)NC(=O)[C@H](Cc1c[nH]cn1)NC(=O)[C@H](CC(C)C)NC(=O)CCCC[C@@H]1SC[C@@H]2NC(=O)N[C@@H]21)C(C)C)C(=O)O [Kir2.1 (inwardly rect. K+ channel)] (Biotin-LHNQASVPLEPRPLRRESEI-OH; C-terminus assumed)
- Kd [2]: 5 µM

Structure (SMILES): CC[C@H](C)[C@H](NC(=O)[C@H](CCC(N)=O)NC(=O)CCCC[C@@H]1SC[C@@H]2NC(=O)N[C@@H]21)C(=O)N[C@@H](CO)C(=O)N1CCC[C@H]1C(=O)NCC(=O)NCC(=O)N[C@@H](CC(C)C)C(=O)N[C@@H](CCC(=O)O)C(=O)N1CCC[C@H]1C(=O)N1CCC[C@H]1C(=O)N[C@@H](CO)C(=O)N[C@@H](CCC(=O)O)C(=O)N[C@@H](CCCCN)C(=O)N[C@@H](Cc1c[nH]cn1)C(=O)N[C@@H](Cc1ccccc1)C(=O)N[C@@H](CCCNC(=N)N)C(=O)N[C@@H](CCC(=O)O)C(=O)N[C@H](C(=O)N[C@@H](CCC(=O)O)C(=O)N[C@H](C(=O)O)C(C)C)[C@@H](C)O [Tax]
- Kd (DLG1(1-2); Kd, DLG1(1-2) plated at 0.1 ug/ml): 0.13 µM and 0.2 µM
- Kd (TIP-1 (GST-TIP-1 fusion); Kd, TIP-1 plated at 0.1 ug/ml): 0.005 µM
- binding to TIP-1 relative to CD95 (comparison of dissociation constants) (TIP-1 (GST-TIP-1 fusion); Tax:TIP-1 versus CD95:TIP-1): > 3000 fold
- OD (maximum absorbance) (TIP-1 (GST-TIP-1 fusion); TIP-1 plated at 0.1 ug/ml): 3.3 and 2.1
- affinity for GST-TIP-1 relative to CD95 (FIG. 2A) (TIP-1 (GST-TIP-1 fusion); equivalent peptide concentrations, equivalent amount of GST-TIP-1): much higher affinity than does CD95
